Patent publication US11564923B2, “Compounds and pharmaceutical compositions thereof for the treatment of inflammatory disorders” (Galapagos NV, priority 2017, dated 2023)

What was measured:
[1] = test system: IFNα activation of STAT1 in PBMC; assay: IFNα activation of STAT1 in PBMC; format: cell-based; details: Homo sapiens; IFNα activation of STAT1 in PBMC; average IC50; read-out: IFNα signaling inhibitory potency IC50
Method in brief: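 Human PBMC, with red cells lysed by NH4Cl, were pre-treated with compound for 30 min at 37 °C and 5% CO2. They were then stimulated for 30 min with recombinant human IFNα at 5 ng/mL final.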

[2] = target: T1, Recombinant human JAK2 (catalytic domain, amino acids 808-1132) (Homo sapiens, UniProt O60674); assay: JAK2 inhibition assay; format: biochemical; details: read-out: JAK2 potency IC50; note: 0.7 µM ATP
T1 construct: catalytic domain, amino acids 808-1132
T1 sequence (O60674 808-1132): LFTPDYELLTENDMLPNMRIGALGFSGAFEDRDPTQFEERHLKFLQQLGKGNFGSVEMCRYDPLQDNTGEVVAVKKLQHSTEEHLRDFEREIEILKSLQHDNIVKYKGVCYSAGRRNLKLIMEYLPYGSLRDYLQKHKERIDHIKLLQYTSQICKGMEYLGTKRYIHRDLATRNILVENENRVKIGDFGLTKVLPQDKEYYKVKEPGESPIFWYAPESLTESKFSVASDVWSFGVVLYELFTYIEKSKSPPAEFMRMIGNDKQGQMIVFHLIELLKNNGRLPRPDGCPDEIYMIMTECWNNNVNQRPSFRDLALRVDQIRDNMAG
Procedure: (§1) After 60 min at room temperature, reactions are stopped by adding 20 μL/well of detection mixture (1× detection buffer (Perkin Elmer, catalog number CR97-100) with 0.5 nM Europium-anti-phosphotyrosine (PT66) (Perkin Elmer, catalog number AD0068/AD0069) and 10 mM EDTA). […] Kinase activity is calculated by subtracting the ratio obtained in the presence of a positive control inhibitor (1 μM staurosporine) from the ratio obtained in the presence of vehicle. The ability of a test compound to inhibit this activity (or percentage inhibition) is determined as:
(§2) [formula] wherein Fluorescent ratio test compound=ratio RFU665/RFU615*1000 determined for sample with test compound present Fluorescent ratio control=ratio RFU665/RFU615*1000 determined for sample with positive control inhibitor Fluorescent ratio vehicle=ratio RFU665/RFU615*1000 determined in the presence of vehicle
(§3) Dose dilution series are prepared for compound enabling the testing of dose-response effects in the JAK2 assay and the calculation of the IC50 for the compound. Each compound is routinely tested at concentration of 20 μM followed by a 1/5 serial dilution, 10 points in a final concentration of 1% DMSO. […] The data are expressed as the average IC50 from the assays.

[3] = target: T2, Recombinant human JAK1 (catalytic domain, amino acids 866-1154) (Homo sapiens, UniProt P23458); assay: JAK1 inhibition assay; format: biochemical; details: read-out: JAK1 potency IC50
T2 construct: catalytic domain, amino acids 866-1154
T2 sequence (P23458 866-1154): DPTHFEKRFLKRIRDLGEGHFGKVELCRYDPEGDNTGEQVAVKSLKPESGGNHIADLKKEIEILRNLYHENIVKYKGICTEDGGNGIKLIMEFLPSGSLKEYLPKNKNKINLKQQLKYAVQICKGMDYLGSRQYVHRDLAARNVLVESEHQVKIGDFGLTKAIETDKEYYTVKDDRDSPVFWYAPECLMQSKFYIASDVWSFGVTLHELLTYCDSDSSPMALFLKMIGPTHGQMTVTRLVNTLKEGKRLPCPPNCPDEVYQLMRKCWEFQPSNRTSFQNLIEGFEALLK
Procedure: as §1, with “CR97-100),” for “CR97-100) with”, “AD0068/AD0069),” for “AD0068/AD0069) and”
as §2
as §3, with “series were” for “series are”, “for the compounds” for “for compound”, “the JAK1” for “the JAK2”

[4] = test system: IL-12 activation of STAT4 in NK-92 cells; assay: IL-12 activation of STAT4 in NK-92 cells using AphaLISA SureFire technology; format: cell-based; details: Homo sapiens, NK92; IL-12 activation of STAT4 in NK-92 cells, AlphaLISA SureFire; average IC50; read-out: IL12 pSTAT4 IC50
Method in brief: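 NK-92 cells, starved of rhIL-2 overnight, were stimulated with rhIL-12 for 30 min at 37 °C with test compounds, then lysed. Phospho-STAT4 (Tyr693) was read by AlphaLISA SureFire. Percent inhibition versus the vehicle-plus-trigger signal was fitted by sigmoidal nonlinear regression to give IC50, averaged over experiments.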

[5] = target: Recombinant human JAK3 catalytic domain (amino acids 781-1124) (Homo sapiens, UniProt P52333); assay: JAK3 inhibition assay; format: biochemical
Recombinant human JAK3 catalytic domain (amino acids 781-1124), sequence (P52333 781-1124): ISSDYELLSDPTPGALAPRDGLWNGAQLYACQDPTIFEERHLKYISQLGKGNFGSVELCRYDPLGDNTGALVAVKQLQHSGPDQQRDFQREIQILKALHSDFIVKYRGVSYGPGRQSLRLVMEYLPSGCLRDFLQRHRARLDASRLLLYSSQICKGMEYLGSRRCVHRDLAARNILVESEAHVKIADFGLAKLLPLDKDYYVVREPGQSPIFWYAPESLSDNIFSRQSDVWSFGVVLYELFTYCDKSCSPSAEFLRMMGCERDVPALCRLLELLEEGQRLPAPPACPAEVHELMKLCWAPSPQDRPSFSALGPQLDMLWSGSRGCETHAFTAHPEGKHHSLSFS
Procedure: After 45 min at 30° C., reactions are stopped by adding 25 μL/well of 150 mM phosphoric acid. […] Plates are washed 6 times with 300 μL per well of a 75 mM phosphoric acid solution and the bottom of the plates is sealed. […] Kinase activity is calculated by subtracting counts per min (cpm) obtained in the presence of a positive control inhibitor (10 μM staurosporine) from cpm obtained in the presence of vehicle. The ability of a test compound to inhibit this activity (or percentage inhibition) is determined as: […]
cpm test compound=cpm determined for sample with test compound present cpm control=cpm determined for sample with positive control inhibitor cpm vehicle=cpm determined in the presence of vehicle
Dose dilution series were prepared for the compounds enabling the testing of dose-response effects in the JAK3 assay and the calculation of the IC50 for each compound. Each compound is routinely tested at concentration of 20 μM followed by a 1/5 serial dilution, 10 points in a final concentration of 1% DMSO.

[6] = target: T3, Recombinant human TYK2 catalytic domain (amino acids 871-1187) (Homo sapiens, UniProt P29597); assay: TYK2 radioactive assay polyGT substrate; format: biochemical; note: 0.1 µM ATP
T3 construct: catalytic domain (amino acids 871-1187)
T3 sequence (P29597 871-1187): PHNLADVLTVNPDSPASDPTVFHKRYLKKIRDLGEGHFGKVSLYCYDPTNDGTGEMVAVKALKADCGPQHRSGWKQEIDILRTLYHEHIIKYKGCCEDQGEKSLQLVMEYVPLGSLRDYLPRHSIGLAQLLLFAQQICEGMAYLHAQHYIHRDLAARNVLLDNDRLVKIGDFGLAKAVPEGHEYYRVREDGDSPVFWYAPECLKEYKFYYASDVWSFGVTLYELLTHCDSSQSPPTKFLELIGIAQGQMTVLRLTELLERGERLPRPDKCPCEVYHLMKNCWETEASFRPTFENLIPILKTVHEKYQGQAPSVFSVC
Method in brief: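 Reaction at 30° C. for 120 min, ended with 150 mM phosphoric acid, washed, counted; percent inhibition scaled between vehicle and 10 μM staurosporine cpm.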

SMILES | IC50 [1] [µM] | IC50 [2] [µM] | IC50 [3] [µM] | IC50 [4] [µM] | IC50 [5] [µM] | IC50 [6] [µM]
Cc1cc(C#N)nnc1Oc1cc(Nc2cc(N)ncn2)c2ncn(C)c2n1 [Compound 3, 6-[7-(6-Amino-pyrimidin-4-ylamino)-3-methyl-3H-imidazo[4,5-b]pyridin-5-yloxy]-5-methyl-pyridazine-3-carbonitrile] | 0.119 | 0.078 | 0.11 | 0.274 | 2.16 | 0.0127
COCCCN(c1cc(Nc2cc(N)ncn2)c2ncn(C)c2n1)c1cnc(C#N)cc1C [Compound 4, 5-[[7-(6-Amino-pyrimidin-4-ylamino)-3-methyl-3H-imidazo[4,5-b]pyridin-5-yl]-(3-methoxy-propyl)-amino]-4-methyl-pyridine-2-carbonitrile] | 0.091 | 0.0164 | 0.0923 | 0.198 | 0.784 | 0.00437
Cn1cnc2c(Nc3ccc(S(C)(=O)=O)cn3)cc(OC(C3CC3)C(F)(F)F)nc21 (stereo not shown) [Compound 22, 5-(1-cyclopropyl-2,2,2-trifluoro-ethoxy)-3-methyl-N-(5-methylsulfonyl-2-pyridyl)imidazo[4,5-b]pyridin-7-amine] | 0.05 | 0.00335 | 0.023 | 0.022 | 0.0979 | 0.00307
COCCNc1cc(Nc2cc(Oc3cnc(C#N)cc3C)nc3c2ncn3C)ncn1 [Compound 31, 5-{7-[6-(2-Methoxy-ethylamino)-pyrimidin-4-ylamino]-3-methyl-3H-imidazo[4,5-b]pyridin-5-yloxy}-4-methyl-pyridine-2-carbonitrile] | 0.094 | 0.0438 | 0.187 | 0.11 | 1.05 | 0.00801
Cc1cc(C#N)ncc1Oc1cc(Nc2cc(NCCC(C)(C)O)ncn2)c2ncn(C)c2n1 [Compound 33, 5-{7-[6-(3-Hydroxy-3-methyl-butylamino)-pyrimidin-4-ylamino]-3-methyl-3H-imidazo[4,5-b]pyridin-5-yloxy}-4-methyl-pyridine-2-carbonitrile] | 0.072 | 0.0231 | 0.0676 | 0.129 | 0.503 | 0.00293
COC1CC(Nc2cc(Nc3cc(Oc4cnc(C#N)cc4C)nc4c3ncn4C)ncn2)C1 (stereo not shown) [Compound 36, 5-{7-[6-(3-Methoxy-cyclobutylamino)-pyrimidin-4-ylamino]-3-methyl-3H-imidazo[4,5-b]pyridin-5-yloxy}-4-methyl-pyridine-2-carbonitrile] | 0.079 | 0.00917 | 0.0405 | 0.05 | 0.417 | 0.00141
Cc1cc(C#N)ncc1Oc1cc(Nc2cnn(C)c2)c2ncn(C)c2n1 [Compound 61, 4-methyl-5-[3-methyl-7-[(1-methylpyrazol-4-yl)amino]imidazo[4,5-b]pyridin-5-yl]oxy-pyridine-2-carbonitrile] | 0.112 | 0.0584 | 0.0603 | 0.221 | 1.11 | 0.0103
CC(C)C(Nc1cc(Nc2ccc(S(C)(=O)=O)cn2)c2ncn(C)c2n1)C(F)(F)F (stereo not shown) [Compound 65, 3-methyl-N7-(5-methylsulfonyl-2-pyridiyl)-N5-[2-methyl-1-(trifluoromethyl)propyl]imidazo[4,5-b]pyridine-5,7-diamine] | 0.096 | 0.0124 | 0.0694 | 0.08 | 0.0697 | 0.00784
COCCCS(=O)(=O)c1ccc(Nc2cc(Oc3cnc(C#N)cc3C)nc3c2ncn3C)cc1 [Compound 71, 5-[7-[4-(3-methoxypropylsulfonyl)anilino]-3-methyl-imidazo[4,5-b]pyridin-5-yl]oxy-4-methyl-pyridine-2-carbonitrile] | 0.111 | 0.0862 | 0.103 | 0.128 | 1.08 | 0.0136
Cc1cc(C#N)ncc1Oc1cc(Nc2ccc(C(=O)N3CC(C(C)(C)O)C3)nn2)c2ncn(C)c2n1 [Compound 111, 5-[7-[[6-[3-(1-hydroxy-1-methyl-ethyl)azetidine-1-carbonyl]pyridazin-3-yl]amino]-3-methyl-imidazo[4,5-b]pyridin-5-yl]oxy-4-methyl-pyridine-2-carbonitrile] | 0.123 | 0.0297 | 0.31 | – | 1.05 | 0.00553
Cc1cc(C#N)ncc1Oc1cc(Nc2ccc(N3CCC(N(C)C)C3)cn2)c2ncn(C)c2n1 (stereo not shown) [Compound 182, 5-[7-[[5-[3-(dimethylamino)pyrrolidin-1-yl]-2-pyridyl]amino]-3-methyl-imidazo[4,5-b]pyridin-5-yl]oxy-4-methyl-pyridine-2-carbonitrile] | – | 0.0764 | 0.165 | – | 0.721 | 0.0172
COCCN(C)c1ccc(Nc2cc(Oc3cnc(C#N)cc3C)nc3c2ncn3C)nc1 [Compound 183, 5-[7-[[5-[2-methoxyethyl(methyl)amino]-2-pyridyl]amino]-3-methyl-imidazo[4,5-b]pyridin-5-yl]oxy-4-methyl-pyridine-2-carbonitrile] | – | 0.0412 | 0.0954 | – | 0.561 | 0.0129
Cc1cc(C#N)ncc1Oc1cc(Nc2ccc(N3CCC(CO)CC3)cn2)c2ncn(C)c2n1 [Compound 184, 5-[7-[[5-[4-(hydroxymethyl)-1-piperidyl]-2-pyridyl]amino]-3-methyl-imidazo[4,5-b]pyridin-5-yl]oxy-4-methyl-pyridine-2-carbonitrile] | – | 0.0221 | 0.059 | – | 0.487 | 0.00642
Cc1cc(C#N)ncc1Oc1cc(Nc2ccc(N(C)C)cn2)c2ncn(C)c2n1 [Compound 185, 5-[7-[[5-(dimethylamino)-2-pyridyl]amino]-3-methyl-imidazo[4,5-b]pyridin-5-yl]oxy-4-methyl-pyridine-2-carbonitrile] | – | 0.0414 | 0.0936 | – | 0.871 | 0.017
Cc1cc(C#N)ncc1N(CC(C)O)c1cc(Nc2cc(N)ncn2)c2ncn(C)c2n1 (stereo not shown) [Cpd 187, 5-[[7-[(6-aminopyrimidin-4-yl)amino]-3-methyl-imidazo[4,5-b]pyridin-5-yl]-(2-hydroxypropyl)amino]-4-methyl-pyridine-2-carbonitrile] | – | 0.0423 | 0.127 | – | 0.66 | 0.00654
